Like-named read-outs stand apart in the source and are kept apart here.
Legend:
[1] = test system: human P-glycoprotein HEK cells (HEK-P-gp); experiment: H3K27me3 immunocytochemistry assay in P-gp expressing HEK293T cells, with or without elacridar; type: cell-based; settings: Homo sapiens, 4 days compound treatment
Method: A plasmid encoding the human ABCB1 gene under the control of a CMV promoter was purchased from Origene (Cat #RC216080). The HEK293T cells were purchased from ATCC (Cat #CRL-3216) and were cultured for expansion in the recommended conditions. The HEK293T cells were transfected with 2 ug of the pCMV-ABCB1 plasmid using Lipofectamine 3000 following recommendations from the manufacturer (ThermoFisher Scientific, Cat #L3000008). After 24 h, cells were dissociated, and 5000 cells were seeded on a 10 cm tissue culture dish. On the next day, fresh media containing 5 nM Vinblastine (Sigma, Cat #V1377) was added, and media containing compound was replenished every 72 h. After surviving cells reached confluency, cells were passaged, and lines were maintained in the presence of 2.5 nM Vinblastine until further characterization.
P-gp expressing HEK293T, HUDEP2, and Human Mobilized Peripheral Blood Primary CD34+ cells were cultured for use in an H3K27me3 immunocytochemistry assay. HUDEP2 and Human Mobilized Peripheral Blood Primary CD34+ cells were cultured for use in an HbF immunocytochemistry assay. P-gp expressing HEK293T cells were maintained and passaged every 3-4 days by plating 300,000 viable cells in a T-25 culture flask containing 6 mLs of 293 Passaging Media comprised of DMEM (ThermoFisher #10566016), 10% fetal bovine serum (ThermoFisher #A3160502), 1% penicillin-streptomycin (ThermoFisher #15140122), and 2.5 nM Vinblastine (Sigma #V1377). To evaluate the inhibitory effect of the compounds of the present disclosure and their brain penetrant properties via P-gp mediated efflux, the H3K27me3 immunocytochemistry assay was conducted in the presence or absence of 250 nM of the P-gp inhibitor, elacridar. Poor brain penetrant compounds were expected to show higher potencies in the presence of Elacridar. However, brain penetrant compounds would show similar potencies irrespective of whether Elacridar is present or not. In these experiments plates without elacridar were seeded with P-gp expressing HEK293T cells at 1000 viable cells per well in a poly-d-lysine coated 384-well plate (Corning Cat #356697) in 45 μL of 293 Assay Media comprised of DMEM (ThermoFisher #10566016), 10% fetal bovine serum (ThermoFisher #A3160502), 1% penicillin-streptomycin (ThermoFisher #15140122). A replicate set of plates were seeded under the same conditions with 45 μL of 293 Assay Media supplemented with 250 nM of Elacridar to inhibit P-gp activity. Compounds were serially diluted at 10× concentration in 293 Media, and 5 μL transferred to their respective wells on both sets of plates for a total volume of 50 μL per well. The compound treated HEK293T cells were allowed to incubate for 4 days at 37° C., 85% relative humidity, and 5% CO2 before proceeding to ICC Fix and Stain protocol.
The Fix and Stain Protocol was the same for HEK293T, HUDEP2, and Primary CD34+ cell assays except the specific primary and secondary antibodies used for detection. Following 4 days of compound treatment, the respective plates were washed once with 25 μL of PBS (ThermoFisher #10010023) and fixed with 25 μL of 4% paraformaldehyde (ThermoFisher #28908) for 10 minutes at room temperature. The plates were then washed three times with 25 μL of PBS. Subsequent to that, the cells were permeabilized and blocked for 1 hour at room temperature in 25 μL of Perm/Block buffer comprised of IX PBS, 1% bovine serum albumin (ThermoFisher #A3294), 10% fetal bovine serum (ThermoFisher #A3160502), 0.3M glycine (Sigma #G7126), and 0.1% tween-20 (Sigma #P7949). This was followed by additional washing (three times) of the plates with 25 μL of 0.1% tween in PBS.
For the H3K27me3 assay, the cells were incubated overnight at 4° C. with 25 μL of H3K27me3 Primary Antibody (Cell Signaling #9733) diluted 1:200 in 0.1% tween-20 in PBS. […]

[2] = target: T1, biotinylated AVI-tagged EED (76-441) (Homo sapiens, UniProt O75530); experiment: EED binding SPR assay; settings: 1:1 binding model; read-out: KD, equilibrium dissociation constant as measured by surface plasmon resonance (SPR)
T1 construct: GST (N, cleaved yes); made in house; host or cells: E. coli BL21(DE3), co-expressed with pGro7
T1 sequence (O75530 76-441 limits assumed): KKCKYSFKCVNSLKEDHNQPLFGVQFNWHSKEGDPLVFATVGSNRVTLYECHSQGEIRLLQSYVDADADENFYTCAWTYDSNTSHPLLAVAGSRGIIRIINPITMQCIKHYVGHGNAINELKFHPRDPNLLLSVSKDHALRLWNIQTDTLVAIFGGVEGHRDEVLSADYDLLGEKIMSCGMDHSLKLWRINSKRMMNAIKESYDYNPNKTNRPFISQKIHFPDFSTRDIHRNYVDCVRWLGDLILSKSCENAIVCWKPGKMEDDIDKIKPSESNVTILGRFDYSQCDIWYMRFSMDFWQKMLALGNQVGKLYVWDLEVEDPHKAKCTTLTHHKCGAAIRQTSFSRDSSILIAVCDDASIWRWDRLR
Method: Biotinylated AVI-tagged EED was produced using standard molecular biology techniques. A pGEX plasmid with a GST-preScission-cleavage-site-AVI-EED(76-441) sequence was placed into E. coli BL21(DE3) cells and co-expressed with pGro7. The E. coli were grown in shaker flasks in LB with ampicillin at 37° C. at 110 rpm to an OD600=0.7. At this time the temperature was lowered to 15° C. and IPTG was added to 0.3 mM. The cells were allowed to express overnight. Cells were then harvested.
For purification, the E. coli cell pellet was lysed into a buffer of 50 mM Tris pH 8.0, 500 mM NaCl, 5% glycerol and 5 mM DTT. The lysate was loaded onto a GSTrap FF column from GE Healthcare. After washing, the bound protein was eluted with 50 mM Tris pH 8.0, 500 mM NaCl, 5% glycerol, 5 mM DTT and 15 mM GSH. The collected fractions were combined and incubated with PreScission enzyme overnight at 4° C. The cleaved protein was then passed through a GSTrap FF column in a buffer of 50 mM Tris pH 8.0, 500 mM NaCl, 5% glycerol and 5 mM DTT. The cleaved protein was confirmed through mass spectrometry. The AVI-EED(76-441) was then buffer exchanged into 50 mM Bicine pH 8.3, 10 mM ATP, 10 mM magnesium acetate and 50 μM D-Biotin. 3 mg of BirA enzyme was added to the system and incubated at 4° C. for 2 hours to biotinylate the AVI-EED(76-441). The biotinylated-AVI-EED(76-441) was then buffer exchanged into 20 mM Tris pH 8.0 and 400 mM NaCl and passed through a size exclusion column of Superdex 200 16/60 Increase. The purified monomeric biotinylated-AVI-EED(76-441) was confirmed through SDS-PAGE, LC-MS and analytical size exclusion chromatography.
All surface plasmon resonance (SPR) assays were performed using a GE Biacore S200 utilizing GE Biotin CAPture chips. Capturing of CAP reagents was performed with a flow rate of 2 μL/min for 90 seconds. For protein capturing, a solution of 50 μg/mL of biotinylated AVI-tagged EED (76-441) in 10 mM HEPES pH 7.4, 150 mM NaCl, 0.05% Tween 20 and 2% DMSO (Running Buffer) was flowed over the chip with a flow rate of 5 μL/min for a contact time of 30 seconds. Final readings were 2200-2400 RU. For compounds, 7 concentrations were made with 3-dilutions using the Running Buffer for a total of 300 μL of each concentration in a 96-well microplate. During the binding experiments, a flow rate of […] was used for an association time of 90 seconds followed by a disassociation time of 180 seconds. The compartment temperature was set at 10° C. with the chip at 25° C. During regeneration the flow rate was set to 30 μL/min for 30 seconds. All fittings were done using a 1:1 binding model.

[3] = HEK293, 96 h, without elacridar, read-out: IC50, inhibitory activity on human P-glycoprotein HEK cells (HEK-P-gp)
[4] = HEK293, with 250 nM elacridar, read-out: IC50, inhibitory activity on human P-glycoprotein HEK cells (HEK-P-gp) pretreated with elacridar

| SMILES | IC50 [1, 3] [nM] | IC50 [1, 4] [nM] | Kd [2] [nM] |
| --- | --- | --- | --- |
| Cc1cn(C)c(-c2cc3c(n4cnnc24)NCc2c(F)ccc4c2C(CO4)CO3)n1 (stereo in doubt) [Compound 135, (S)-4-(1,4-dimethyl-1H-imidazol-2-yl)-12-fluoro-7a,8,13,14-tetrahydro-7H-[1,2,4]triazolo[4',3':1,6]pyrido]3,2-b]benzofuro[4,3-fg][1,4]oxazonine] | 50 to 100 | 50 to 100 | < 2.5 |
| Cc1ccnc(-c2cc3c(n4cnnc24)NCc2c(F)ccc4c2C(CO4)CO3)c1 (stereo in doubt) [Compound 149, (S)-12-fluoro-4-(4-methylpyridin-2-yl)-7a,8,13,14-tetrahydro-7H-[1,2,4]triazolo[4',3':1,6]pyrido]3,2-b]benzofuro[4,3-fg][1,4]oxazonine] | > 500 | > 500 | 10 to 50 |
| Cc1ccc(C(F)F)c(-c2cc3c(n4cnnc24)NCc2c(F)ccc4c2[C@@H](CO4)CO3)n1 [Compound 144] | 100 to 500 | 100 to 500 | 2.5 to 5 |
| COc1cccnc1-c1cc2c(n3cnnc13)NCc1c(F)ccc3c1[C@@H](CO3)CO2 [Compound 159, (S)-12-fluoro-4-(3-methoxypyridin-2-yl)-7a,8,13,14-tetrahydro-7H-[1,2,4]triazolo[4′,3′:1,6]pyrido[3,2-b]benzofuro[4,3-fg][1,4]oxazonine] | > 500 | > 500 | 10 to 50 |
| Cc1cc(-c2cc3c(n4cnnc24)NCc2c(F)ccc4c2[C@@H](CO4)CO3)ncn1 [Compound 161, (S)-12-fluoro-4-(6-methylpyrimidin-4-yl)-7a,8,13,14-tetrahydro-7H-[1,2,4]triazolo[4′,3′:1,6]pyrido[3,2-b]benzofuro[4,3-fg][1,4]oxazonine] | > 500 | > 500 | 5 to 10 |
| Cc1cncnc1-c1cc2c(n3cnnc13)NCc1c(F)ccc3c1[C@@H](CO3)CO2 [Compound 162, (S)-12-fluoro-4-(5-methylpyrimidin-4-yl)-7a,8,13,14-tetrahydro-7H-[1,2,4]triazolo[4′,3′:1,6]pyrido[3,2-b]benzofuro[4,3-fg][1,4]oxazonine] | 25 to 50 | 50 to 100 | 2.5 to 5 |
| Fc1ccc2c3c1CNc1c(cc(-c4ncncc4Cl)c4nncn14)OC[C@@H]3CO2 [Compound 163, (S)-4-(5-chloropyrimidin-4-yl)-12-fluoro-7a,8,13,14-tetrahydro-7H-[1,2,4]triazolo[4′,3′:1,6]pyrido[3,2-b]benzofuro[4,3-fg][1,4]oxazonine] | 100 to 500 | 25 to 50 | < 2.5 |
| Cc1cc(Cl)cnc1-c1cc2c(n3cnnc13)NCc1c(F)ccc3c1[C@@H](CO3)CO2 [Compound 166, (S)-4-(5-chloro-3-methylpyridin-2-yl)-12-fluoro-7a,8,13,14-tetrahydro-7H-[1,2,4]triazolo[4′,3′:1,6]pyrido[3,2-b]benzofuro[4,3-fg][1,4]oxazonine] | > 500 | > 500 | 2.5 to 5 |
| Cn1ncc(C#N)c1-c1cc2c(n3cnnc13)NCc1c(F)ccc3c1C(CO3)CO2 [Compound 170, (S)-5-(12-fluoro-7a,8,13,14-tetrahydro-7H-[1,2,4]triazolo[4′,3′:1,6]pyrido[3,2-b]benzofuro[4,3-fg][1,4]oxazonin-4-yl)-1-methyl-1H-pyrazole-4-carbonitrile] | 100 to 500 | 100 to 500 | < 2.5 |
| Fc1ccc2c3c1CNc1c(cc(-c4cnn5c4CCC5)c4nncn14)OC[C@@H]3CO2 [Compound 171, (S)-4-(5,6-dihydro-4H-pyrrolo[1,2-b]pyrazol-3-yl)-12-fluoro-7a,8,13,14-tetrahydro-7H-[1,2,4]triazolo[4',3':1,6]pyrido[3,2-b]benzofuro [4,3-fg][1,4] oxanzonine] | > 500 | > 500 | < 2.5 |
| Cn1nccc1-c1cc2c(n3cc(C(=O)O)nc13)NCc1c(F)ccc3c1[C@@H](CO3)CO2 [Compound 174, (S)-5-fluoro-12-(1-methyl-1H-pyrazol-5-yl)-6,7,15,15a-tetrahydro-1H-benzofuro[4,3-fg]imidazo[r,2′:1,6]pyrido[3,2-b][1,4]oxazonine-10-carboxylic acid] |  |  | 5 to 10 |
| Cc1ncccc1-c1cc2c(n3cc(C(=O)O)nc13)NCc1c(F)ccc3c1[C@@H](CO3)CO2 [Compound 177, (S)-5-fluoro-12-(2-methylpyridin-3-yl)-6,7,15,15a-tetrahydro-1H-benzofuro[4,3-fg]imidazo[r,2′:1,6]pyrido[3,2-b][1,4]oxazonine-10-carboxylic acid] | > 500 | > 500 | 10 to 50 |
| Fc1ccc2c3c1CNc1c(cc(-c4cnc(C5CC5)nc4)c4nncn14)OC[C@@H]3CO2 [Compound 178, (S)-4-(2-cyclopropylpyrimidin-5-yl)-12-fluoro-7a,8,13,14-tetrahydro-7H-[1,2,4]triazolo[4′,3′:1,6]pyrido[3,2-b]benzofuro[4,3-fg][1,4]oxazonine] | 100 to 500 | 50 to 100 | < 2.5 |
